The source of these data is patent US7803816B2, “MCH receptor antagonists” (Hoffmann-La Roche Inc., priority 2005, dated 2010).

The IC50 is the concentration at which inhibition is half-maximal.

Counter-ions that a name gives are not always drawn.

In the test the target is T1, recombinant human MCHR1-receptors (Homo sapiens, UniProt Q99705).
T1 construct: expressed in transfected cells
T1 sequence (Q99705 whole entry): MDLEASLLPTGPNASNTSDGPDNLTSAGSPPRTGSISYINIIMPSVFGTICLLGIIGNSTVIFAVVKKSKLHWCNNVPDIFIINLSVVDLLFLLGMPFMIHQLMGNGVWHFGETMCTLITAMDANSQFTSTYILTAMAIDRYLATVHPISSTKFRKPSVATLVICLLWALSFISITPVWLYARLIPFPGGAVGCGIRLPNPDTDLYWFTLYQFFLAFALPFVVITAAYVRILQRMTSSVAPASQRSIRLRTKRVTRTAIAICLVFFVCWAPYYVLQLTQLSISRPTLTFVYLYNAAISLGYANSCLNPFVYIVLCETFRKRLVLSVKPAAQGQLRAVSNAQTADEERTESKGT
The experiment in a line: MCHR filter binding assay (competition binding). Conditions: membranes from CHO-K1 cells expressing human MCHR1; 0.2 nM [Phe13,[125I]Tyr19]-MCH; read-out: IC50 (nM), in vitro activity (binding assay). As to the method:
MCHR Filter Binding Assay
Competition binding assays were performed using membranes from CHO-K1 cells stably expressing the recombinant human MCHR1-receptors. Binding reactions (90 μl, final volume) were carried out at rt by incubating 2.8 μg membranes with 0.2 nM [Phe^13,[^125I]Tyr^19]-MCH (PerkinElmer) in the absence or presence of various concentrations of competing ligands in binding buffer (50 mM HEPES, 2.5 mM CaCl2, 0.05 mM BSA, 1 mM phenanthroline, 0.03 mM Triton X-100). [Phe^13,[^125I]Tyr^19]-MCH was added 15 min following the addition of unlabeled competing ligands, and the reactions incubated for a 1 h period. The reactions were terminated by rapid filtration over pretreated 96-well filter plates (Millipore; MultiScreen 0.65 μm GFB filter plates). Filter Plates were treated for 12 h at 4° C. with a 0.5% polyvinylpyrrolidone solution containing 1% BSA and 0.1% Tween 20, and then washed with an ice-cold solution of 10 mM Tris, pH 7.5 (5×200 μl). The plates were drained following a 5 min incubation with binding buffer (200 μl) at rt. Following termination of the binding reactions, the filters were washed with ice-cold binding buffer (4×200 μl). The filter plates were air dried for 30 min, scintillation cocktail (60 μl) added to each well and radioactivity bound to the plates was determined using a Micro-beta plate reader (Wallace/PerkinElmer).
As for `Cc1cc2nc(C)n(C3CCN(C[C@@H]4Cc5ccc(NC(=O)C(C)C)cc5C4)CC3)c2cn1` [Example 10, N-{(R)-2-[4-(2,6-Dimethyl-imidazo[4,5-c]pyridin-3-yl)-piperidin-1-ylmethyl]-indan-5-yl}-isobutyramide; compound with trifluoro-acetic acid], the half-maximal inhibitory concentration (IC50) is 200 to 5000 nM.
With `CO[C@@H]1CN(CC2Cc3ccc(F)cc3C2)CC[C@H]1n1c(C)nc2cc(C)ccc21` (stereo partly drawn) [Example 20, 1-[(3R,4R)-1-(5-Fluoro-indan-2-ylmethyl)-3-methoxy-piperidin-4-yl]-2,5-dimethyl-1H-benzoimidazole] the figure was 20 to 200 nM; with `CCC(=O)Nc1ccc2c(c1)C[C@H](CN1CCC(n3c(C(C)C)nc4cc(C)ccc43)[C@@H](OC)C1)C2` (stereo in doubt) [Example 32, N-{(R)-2-[(3S,4S)-4-(2-Isopropyl-5-methyl-benzoimidazol-1-yl)-3-methoxy-piperidin-1-ylmethyl]-indan-5-yl}-propionamide], less than 20 nM.
With `COC1CN(C[C@@H]2Cc3ccc(NC(=O)C4CC4)cc3C2)CCC1n1c(C(C)C)nc2cc(C)ccc21` (stereo partly drawn) [Example 64, Cyclopropanecarboxylic acid {(R)-2-[4-(2-isopropyl-5-methyl-benzoimidazol-1-yl)-3-methoxy-piperidin-1-ylmethyl]-indan-5-yl}-amide] the figure was less than 20 nM; with `CO[C@@H]1CN(C[C@@H]2Cc3ccc(NC(=O)C4CC4)cc3C2)CC[C@H]1n1c(C2CC2)nc2cc(C)ccc21` [Example 80, Cyclopropanecarboxylic acid {(R)-2-[(3R,4R)-4-(2-cyclopropyl-5-methyl-benzoimidazol-1-yl)-3-methoxy-piperidin-1-ylmethyl]-indan-5-yl}-amide], 200 to 5000 nM; with “N-(2-{2-[4-(2,5-Dimethyl-benzoimidazol-1-yl)-piperidin-1-yl]-ethyl}-indan-5-yl)-isobutyramide [Example 58]”, 200 to 5000 nM.
On to `CO[C@@H]1CN(C[C@H]2Cc3ccc(Br)cc3C2)CC[C@H]1n1c(C(C)(C)C)nc2cc(C)ccc21` [Example 26, 1-[(3R,4R)-1-((S)-5-Bromo-indan-2-ylmethyl)-3-methoxy-piperidin-4-yl]-2-tert-butyl-5-methyl-1H-benzoimidazole], for which the IC50 was 20 to 200 nM.
On to `CCC(=O)Nc1ccc2c(c1)C[C@H](CN1CCC(n3c(CC)nc4cc(C)ccc43)C(OC)C1)C2` (stereo partly drawn) [Example 69, N-{(R)-2-[4-(2-Ethyl-5-methyl-benzoimidazol-1-yl)-3-methoxy-piperidin-1-ylmethyl]-indan-5-yl}-propionamide], for which the IC50 is less than 20 nM.
Consider `CO[C@@H]1CN(C[C@@H]2Cc3ccc(NC(=O)C4CC4)cc3C2)CC[C@H]1n1c(C)nc2cc(F)ccc21` [Example 28, Cyclopropanecarboxylic acid {(R)-2-[(3R,4R)-4-(5-fluoro-2-methyl-benzoimidazol-1-yl)-3-methoxy-piperidin-1-ylmethyl]-indan-5-yl}-amide; dihydrochloride], for which the IC50 lay within 200 to 5000 nM.
With `CO[C@@H]1CN(C[C@@H]2Cc3ccc(Br)cc3C2)CC[C@H]1n1c(C)nc2cc(C)ccc21` [Example 87, 1-[(3R,4R)-1-((R)-5-Bromo-indan-2-ylmethyl)-3-methoxy-piperidin-4-yl]-2,5-dimethyl-1H-benzoimidazole; dihydrochloride] the figure was 20 to 200 nM; with `COC(=O)Nc1ccc2c(c1)C[C@H](CN1CCC(n3c(C(C)(C)C)nc4cc(C)ccc43)CC1)C2` [Example 40, {(R)-2-[4-(2-tert-Butyl-5-methyl-benzoimidazol-1-yl)-piperidin-1-ylmethyl]-indan-5-yl}-carbamic acid methyl ester], less than 20 nM; with `CO[C@H]1CN(CC2Cc3ccccc3C2)CC[C@@H]1n1c(C(C)C)nc2cc(C)ccc21` [Example 29, 1-((3S,4S)-1-Indan-2-ylmethyl-3-methoxy-piperidin-4-yl)-2-isopropyl-5-methyl-1H-benzoimidazole], 200 to 5000 nM.
With `COC1CN(C[C@H]2Cc3ccc(C#N)cc3C2)CC[C@H]1n1c(C(C)(C)O)nc2cc(C)ccc21` (stereo in doubt) [Example 120, (S)-2-{(3R,4R)-4-[2-(1-Hydroxy-1-methyl-ethyl)-5-methyl-benzoimidazol-1-yl]-3-methoxy-piperidin-1-ylmethyl}-indan-5-carbonitrile] the figure was less than 20 nM; with `Cc1ccc2c(c1)ncn2C1CCN(CC2Cc3cccc(Cl)c3C2)CC1` (stereo not drawn) [Example 102, 1-[1-(4-Chloro-indan-2-ylmethyl)-piperidin-4-yl]-5-methyl-1H-benzoimidazole; compound with trifluoroacetic acid], 200 to 5000 nM; with `CCC(=O)Nc1ccc2c(c1)C[C@H](CN1CC[C@@H](n3c(C4CC4)nc4cc(C)ccc43)[C@H](OC)C1)C2` [Example 76, N-{(R)-2-[(3R,4R)-4-(2-Cyclopropyl-5-methyl-benzoimidazol-1-yl)-3-methoxy-piperidin-1-ylmethyl]-indan-5-yl}-propionamide], 20 to 200 nM.
With `Cc1ccc2c(c1)nc(C)n2[C@H]1CCN(C[C@@H]2Cc3ccc(NC(=O)C(C)C)cc3C2)C[C@@H]1OCC(C)(C)O` [Example 15, N-{(R)-2-[(3S,4S)-4-(2,5-Dimethyl-benzoimidazol-1-yl)-3-(2-hydroxy-2-methyl-propoxy)-piperidin-1-ylmethyl]-indan-5-yl}-isobutyramide; dihydrochloride] the figure was less than 20 nM.
As to “1-((3R,4R)-1-Indan-2-ylmethyl-3-methoxy-piperidin-4-yl)-2,5-dimethyl-1H-benzoimidazole; dihydrochloride [Example 55]”, the IC50 was 200 to 5000 nM.
With `Cc1ccc2c(c1)nc(C(C)C)n2[C@@H]1CCN(CC2Cc3ccc(NC(=O)C4CC4)cc3C2)C[C@H]1O` (stereo in doubt) [Example 2, Cyclopropanecarboxylic acid {(R)-2-[(3R,4R)-3-hydroxy-4-(2-isopropyl-5-methyl-benzoimidazol-1-yl)-piperidin-1-ylmethyl]-indan-5-yl}-amide] the figure was 20 to 200 nM.
With `CO[C@@H]1CN(CC2Cc3ccc(C(C)C)cc3C2)CC[C@H]1n1c(C(C)C)nc2cc(C)ccc21` (stereo partly drawn) [Example 98, 2-Isopropyl-1-[(3R,4R)-1-(5-isopropyl-indan-2-ylmethyl)-3-methoxy-piperidin-4-yl]-5-methyl-1H-benzoimidazole] the figure was 200 to 5000 nM.
With `CO[C@@H]1CN(C[C@@H]2Cc3ccc(NC(=O)C(C)C)cc3C2)CC[C@H]1n1c(C)nc2cc(C)ccc21` [Example 16, N-{(R)-2-[(3R,4R)-4-(2,5-Dimethyl-benzoimidazol-1-yl)-3-methoxy-piperidin-1-ylmethyl]-indan-5-yl}-isobutyramide; dihydrochloride] the figure was 20 to 200 nM; with `CO[C@@H]1CN(CC2Cc3ccc(C)cc3C2)CC[C@H]1n1c(C(C)(C)O)nc2cc(F)ccc21` (stereo partly drawn) [Example 110, 2-{5-Fluoro-1-[(3R,4R)-3-methoxy-1-(5-methyl-indan-2-ylmethyl)-piperidin-4-yl]-1H-benzoimidazol-2-yl}-propan-2-ol], 20 to 200 nM.
As for `CO[C@@H]1CN(C[C@H]2Cc3ccc(Br)cc3C2)CC[C@H]1n1c(C(C)(C)O)nc2cc(C)c(F)cc21` [Example 123, 2-{1-[(3R,4R)-1-((S)-5-Bromo-indan-2-ylmethyl)-3-methoxy-piperidin-4-yl]-6-fluoro-5-methyl-1H-benzoimidazol-2-yl}-propan-2-ol], the IC50 was less than 20 nM.
With `COC(=O)Nc1ccc2c(c1)C[C@H](CN1CC[C@H](n3c(C4CC4)nc4cc(C)ccc43)[C@@H](OC)C1)C2` [Example 71, {(R)-2-[(3S,4S)-4-(2-Cyclopropyl-5-methyl-benzoimidazol-1-yl)-3-methoxy-piperidin-1-ylmethyl]-indan-5-yl}-carbamic acid methyl ester], the IC50 was less than 20 nM.
With `Cc1ccc2c(c1)nc(C(C)(C)O)n2[C@@H]1CCN(C[C@H]2Cc3ccc(Br)cc3C2)CC1O` (stereo in doubt) [Example 122, (3R,4R)-1-((S)-5-Bromo-indan-2-ylmethyl)-4-[2-(1-hydroxy-1-methyl-ethyl)-5-methyl-benzoimidazol-1-yl]-piperidin-3-ol] the figure was less than 20 nM.
With `Cc1ccc2c(c1)nc(Cl)n2C1CCN(C[C@@H]2Cc3ccc(N)cc3C2)CC1` [Example 31, (R)-2-[4-(2-Chloro-5-methyl-benzoimidazol-1-yl)-piperidin-1-ylmethyl]-indan-5-ylamine; dihydrochloride] the figure was 200 to 5000 nM; with `CO[C@H]1CN(C[C@@H]2Cc3ccc(Br)cc3C2)CC[C@@H]1n1c(C(C)C)nc2cc(C)ccc21` [Example 90, 1-[(3S,4S)-1-((R)-5-Bromo-indan-2-ylmethyl)-3-methoxy-piperidin-4-yl]-2-isopropyl-5-methyl-1H-benzoimidazole], 200 to 5000 nM; with `Cc1ccc2c(c1)nc(C)n2C1CCN(C[C@@H]2Cc3ccc(NC(=O)C(C)C)cc3C2)CC1` [Example 35, N-{(R)-2-[4-(2,5-Dimethyl-benzoimidazol-1-yl)-piperidin-1-ylmethyl]-indan-5-yl}-isobutyramide], less than 20 nM.
